PubChem BioAssay (NCI)
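Step 1: Grow cells in 96-well plates. Step 2: Expose to compound for 48 hours at 5 concentrations. Step 3: Interpolate endpoints linearly; if unreached, use highest concentration. TGI marks complete inhibition of growth.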

Columns and labels:
Assay in all cases: inhibition of tumour cell growth, NCI panel, 48 h
RXF-631 renal = system: RXF-631 renal
SF-539 CNS = system: SF-539 CNS
DMS 114 small cell lung = system: DMS 114 small cell lung
A549 NSCLC = system: A549 NSCLC
SNB-19 CNS = system: SNB-19 CNS
DMS 273 small cell lung = system: DMS 273 small cell lung
IGROV1 ovarian = system: IGROV1 ovarian
UO-31 renal = system: UO-31 renal
HT29 colon = system: HT29 colon
SNB-78 CNS = system: SNB-78 CNS
OVCAR-4 ovarian = system: OVCAR-4 ovarian
UACC-257 melanoma = system: UACC-257 melanoma
SK-MEL-28 melanoma = system: SK-MEL-28 melanoma
HCT-116 colon = system: HCT-116 colon
SF-268 CNS = system: SF-268 CNS
HOP-62 NSCLC = system: HOP-62 NSCLC
SNB-75 CNS = system: SNB-75 CNS
M14 melanoma = system: M14 melanoma
OVCAR-5 ovarian = system: OVCAR-5 ovarian
SW-620 colon = system: SW-620 colon
HOP-92 NSCLC = system: HOP-92 NSCLC
MALME-3M melanoma = system: MALME-3M melanoma
SN12C renal = system: SN12C renal
ACHN renal = system: ACHN renal
NCI-H23 lung = system: NCI-H23 lung
XF 498 CNS = system: XF 498 CNS
KM20L2 colon = system: KM20L2 colon
U251 CNS = system: U251 CNS
DLD-1 colon = system: DLD-1 colon
SF-295 CNS = system: SF-295 CNS
EKVX NSCLC = system: EKVX NSCLC
OVCAR-3 ovarian = system: OVCAR-3 ovarian
KM12 colon = system: KM12 colon
786-0 renal = system: 786-0 renal
MOLT-4 leukemia = system: MOLT-4 leukemia
NCI-H226 lung = system: NCI-H226 lung
OVCAR-8 ovarian = system: OVCAR-8 ovarian
HCC-2998 colon = system: HCC-2998 colon
HCT-15 colon = system: HCT-15 colon
HOP-18 NSCLC = system: HOP-18 NSCLC
SK-MEL-2 melanoma = system: SK-MEL-2 melanoma
K-562 leukemia = system: K-562 leukemia
A498 renal = system: A498 renal
HL-60(TB) leukemia = system: HL-60(TB) leukemia
RPMI-8226 leukemia = system: RPMI-8226 leukemia
CAKI-1 renal = system: CAKI-1 renal
LXFL 529 NSCLC = system: LXFL 529 NSCLC
SK-MEL-5 melanoma = system: SK-MEL-5 melanoma
UACC-62 melanoma = system: UACC-62 melanoma
M19-MEL melanoma = system: M19-MEL melanoma
RXF 393 renal = system: RXF 393 renal
NCI-H460 lung = system: NCI-H460 lung
CCRF-CEM leukemia = system: CCRF-CEM leukemia
SK-OV-3 ovarian = system: SK-OV-3 ovarian
TK-10 renal = system: TK-10 renal
NCI-H522 lung = system: NCI-H522 lung
COLO 205 colon = system: COLO 205 colon
LOX IMVI melanoma = system: LOX IMVI melanoma
SR leukemia = system: SR leukemia

Measured: TGI

N#CNc1nc(C(=O)Nc2ccc(Cl)cc2)cc(-c2ccccc2)n1
not listed: NCI-H460 lung | CCRF-CEM leukemia | SK-OV-3 ovarian | TK-10 renal | NCI-H522 lung | COLO 205 colon | LOX IMVI melanoma | SR leukemia
> 100 µM: all other assays above

COC(=O)C1CCC(N2C(=O)CCC2C(=O)OC)=N1 (stereo not given)
not listed: SF-539 CNS | DMS 114 small cell lung | SK-MEL-5 melanoma | RXF 393 renal | SR leukemia
> 100 µM: all other assays above

Cc1cccc(NC(=O)Cc2nc3ccccc3s2)c1C
not listed: SNB-78 CNS | HCT-116 colon | HOP-92 NSCLC | U251 CNS | HOP-18 NSCLC | SR leukemia
> 100 µM: all other assays above

CN(Cc1ccccc1)c1nc(=[N+](C)C)ss1
not listed: OVCAR-3 ovarian | COLO 205 colon
> 100 µM: all other assays above
